Target: T1, PIP4K2A (Homo sapiens, UniProt P48426)
T1 sequence (P48426 1-406): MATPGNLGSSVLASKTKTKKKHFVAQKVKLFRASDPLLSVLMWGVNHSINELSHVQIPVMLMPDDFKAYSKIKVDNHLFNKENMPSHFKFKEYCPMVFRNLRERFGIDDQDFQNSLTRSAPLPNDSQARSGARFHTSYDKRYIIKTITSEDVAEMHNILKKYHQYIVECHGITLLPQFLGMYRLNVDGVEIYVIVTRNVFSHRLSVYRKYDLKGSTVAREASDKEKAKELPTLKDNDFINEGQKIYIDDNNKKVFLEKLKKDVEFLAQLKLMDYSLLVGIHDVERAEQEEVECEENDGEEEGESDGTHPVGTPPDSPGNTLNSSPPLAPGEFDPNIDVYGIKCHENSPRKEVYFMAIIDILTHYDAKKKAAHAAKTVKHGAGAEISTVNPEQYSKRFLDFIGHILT
Assay: Kinase Assay PIP4K2 A (Table 2)
Type: biochemical
Design: 4 nM PIP4K2A (full length protein, SignalChem); purchased SignalChem
Details: compounds listed under IC50 bins
Procedure: Dilution series of the compounds were prepared in DMSO at 100 times the final assay concentration (n1=n0/3 in 10 points). The compounds were further diluted to three times the assay concentration in assay buffer (20 mM MOPS pH 7.2, 25 mM magnesium chloride, 0.005% Tween 20). 6 μL of the diluted compounds were added to a 384 well assay plate followed by 9 μL of a mix consisting of 4 nM PIP4K2A (full length protein, SignalChem) and 100 μM PI(5)P diC8 (Tebu-Bio). Enzyme and compounds were pre-incubated at room temperature for 15 minutes.
Then 3 μL of a solution containing 60 μM ATP (Promega) in assay buffer was added to the wells containing compound and enzyme and mixing was performed by pipetting several times. The reaction was incubated at room temperature for 1 h. Then 18 μL of ADP-Glo™ Reagent (Promega) was added to stop the kinase reaction and deplete the unconsumed ATP, mixing was performed by pipetting several times. The plate was incubated at room temperature for 40 minutes before addition of 36 μL of Kinase Detection Reagent (Promega) to convert ADP to ATP and introduce luciferase and luciferin to detect ATP. The reaction was incubated at room temperature for 40 minutes before the luminescence was measured in a in a Victor 3V 1420 multilabel counter (Perkin Elmer).
Percent inhibition of the compounds as compared to dimethyl sulfoxide treated control samples was calculated. Compound concentration versus percent inhibition were fitted to generate IC50 values.

Question: Which IC50 does the source give for `CN(C)C(=O)c1ccc(-c2ccc(Nc3ccc(=O)n(Cc4ccccc4)c3)nc2)cc1` [Example 54, 4-(6-((1-benzyl-6-oxo-1,6-dihydropyridin-3-yl)amino)pyridin-3-yl)-N,N-dimethylbenzamide] here?
Answer: The IC50 was over 1000 nM.

Question: For `CN(C)S(=O)(=O)c1ccc(-c2ccc(Nc3cccnc3)nc2)cc1` [Example 63, N,N-dimethyl-4-(6-(pyridin-3-ylamino)pyridin-3-yl)benzenesulfonamide], which IC50 is on record?
Answer: Its IC50 is 100 to 1000 nM.

Question: With `CN(C)C(=O)c1ccc(-c2cnc(Nc3cccnc3)cn2)cc1` [Example 18, N,N-dimethyl-4-(5-(pyridin-3-ylamino)pyrazin-2-yl)benzamide] as the compound, how does the IC50 read?
Answer: Its IC50 is 100 to 1000 nM.

Question: `CC(C)[C@@H]1NC(=O)N(c2cncc(Nc3ccc(-c4ccc(C(=O)N(C)C)cc4)cn3)c2)C1=O` [Example 57, (S)-4-(6-((5-(4-isopropyl-2,5-dioxoimidazolidin-1-yl)pyridin-3-yl)amino)pyridin-3-yl)-N,N-dimethylbenzamide] was tested. Which IC50 did it give?
Answer: The IC50 was 100 to 1000 nM.

Question: `Cn1cnnc1-c1ccc(-c2ccc(Nc3cccnc3)nc2)cc1` [Example 65, 5-(4-(4-methyl-4H-1,2,4-triazol-3-yl)phenyl)-N-(pyridin-3-yl)pyridin-2-amine] was tested. Which IC50 did it give?
Answer: The IC50 was 100 to 1000 nM.

Question: With `CN(C)C(=O)c1ccc(-c2ccc(Nc3cncc(N(C)C(=O)C4CC4c4ccccc4)c3)nc2)cc1` (stereo not drawn) [Example 52, N,N-dimethyl-4-(6-((5-(N-methyl-2-phenylcyclopropane-1-carboxamido)pyridin-3-yl)amino)pyridin-3-yl)benzamide] as the compound, how does the IC50 read?
Answer: Its IC50 is 10 to 100 nM.

Question: `CN(C)C(=O)c1ccc(-c2ccc(Nc3cccnc3)nc2)nc1` [Example 9, N,N-dimethyl-6′-(pyridin-3-ylamino)-[2,3′-bipyridine]-5-carboxamide] was tested. Which IC50 did it give?
Answer: Its IC50 is over 1000 nM.

Question: For `CN(C)C(=O)c1ccc(-c2ccc(Nc3cncc(C4(C#N)CC4)c3)nc2)cc1` [Example 40, 4-(6-((5-(1-cyanocyclopropyl)pyridin-3-yl)amino)pyridin-3-yl)-N,N-dimethylbenzamide], which IC50 is on record?
Answer: The IC50 was 10 to 100 nM.

Question: How did the IC50 turn out when `CN(Cc1cccnc1)C(=O)c1ccc(-c2ccc(Nc3cccnc3)nc2)cc1` [Example 70, N-methyl-4-(6-(pyridin-3-ylamino)pyridin-3-yl)-N-(pyridin-3-ylmethyl)benzamide] was run?
Answer: The IC50 was over 1000 nM.

Question: For `CN(C)C(=O)c1ccc(-c2ccc(Nc3cccnc3)nc2)cn1` [Example 3, N,N-dimethyl-6′-(pyridin-3-ylamino)-[3,3′-bipyridine]-6-carboxamide], which IC50 is on record?
Answer: The IC50 was over 1000 nM.

Question: With `Cc1cc(-c2ccc(Nc3cccnc3)nc2)ccc1C(=O)N(C)C` [Example 10, N,N,2-trimethyl-4-(6-(pyridin-3-ylamino)pyridin-3-yl)benzamide] as the compound, how does the IC50 read?
Answer: The IC50 was over 1000 nM.

Question: `O=C(c1ccc(-c2ccc(Nc3cccnc3)nc2)cc1)N1CCCC1` [Example 66, (4-(6-(pyridin-3-ylamino)pyridin-3-yl)phenyl)(pyrrolidin-1-yl)methanone] was tested. Which IC50 did it give?
Answer: Its IC50 is over 1000 nM.

Question: For `CN(C)C(=O)c1ccc(-c2ccc(Nc3cncc(N4CCCC4=O)c3)nc2)c(F)c1` [Example 13, 3-fluoro-N,N-dimethyl-4-(6-((5-(2-oxopyrrolidin-1-yl)pyridin-3-yl)amino)pyridin-3-yl)benzamide], which IC50 is on record?
Answer: The IC50 was 10 to 100 nM.

Question: With `CN(C)C(=O)C1CC=C(c2ccc(Nc3cccnc3)nc2)CC1` (stereo not drawn) [Example 6, N,N-dimethyl-4-(6-(pyridin-3-ylamino)pyridin-3-yl)cyclohex-3-ene-1-carboxamide] as the compound, how does the IC50 read?
Answer: The IC50 was over 1000 nM.

Question: Which IC50 does the source give for `CN(C)C(=O)c1ccc(-c2ccc(Nc3cncc(C(=O)N(C)C)c3)nc2)cc1` [Example 37, 5-((5-(4-(dimethylcarbamoyl)phenyl)pyridin-2-yl)amino)-N,N-dimethylnicotinamide] here?
Answer: Its IC50 is over 1000 nM.

Question: How did the IC50 turn out when `CNC(=O)c1ccc(-c2ccc(Nc3cncc(N4CCCC4=O)c3)nc2)cc1` [Example 219, N-methyl-4-(6-((5-(2-oxopyrrolidin-1-yl)pyridin-3-yl)amino)pyridin-3-yl)benzamide] was run?
Answer: Its IC50 is over 1000 nM.

Question: `CN(C)C(=O)[C@H]1CC[C@@H](c2ccc(Nc3cccnc3)nc2)CC1` [Example 8, (1s,4s)-N,N-dimethyl-4-(6-(pyridin-3-ylamino)pyridin-3-yl)cyclohexane-1-carboxamide] was tested. Which IC50 did it give?
Answer: Its IC50 is over 1000 nM.

Question: Which IC50 does the source give for `CCN(C)C(=O)c1ccc(-c2ccc(Nc3cccnc3)nc2)cc1` [Example 68, N-ethyl-N-methyl-4-(6-(pyridin-3-ylamino)pyridin-3-yl)benzamide] here?
Answer: The IC50 was 100 to 1000 nM.

Question: For `CN(C)C(=O)c1ccc(-c2ccc(Nc3cncc(N4CCCC4=O)c3)nc2)cc1` [Example 38, N,N-dimethyl-4-(6-((5-(2-oxopyrrolidin-1-yl)pyridin-3-yl)amino)pyridin-3-yl)benzamide], which IC50 is on record?
Answer: Its IC50 is 10 to 100 nM.

Question: How did the IC50 turn out when `Cc1ncccc1Nc1ccc(-c2ccc(C(=O)N(C)C)cc2)cn1` [Example 35, N,N-dimethyl-4-(6-((2-methylpyridin-3-yl)amino)pyridin-3-yl)benzamide] was run?
Answer: Its IC50 is over 1000 nM.

Question: Which IC50 does the source give for `O=C(c1ccc(-c2ccc(Nc3cccnc3)nc2)cc1)N1CCC1` [Example 11, azetidin-1-yl(4-(6-(pyridin-3-ylamino)pyridin-3-yl)phenyl)methanone] here?
Answer: The IC50 was 10 to 100 nM.

Question: Which IC50 does the source give for `CN(C)C(=O)[C@H]1CC[C@H](c2ccc(Nc3cccnc3)nc2)CC1` [Example 7, (r,4r)-N,N-dimethyl-4-(6-(pyridin-3-ylamino)pyridin-3-yl)cyclohexane-1-carboxamide] here?
Answer: Its IC50 is over 1000 nM.

Question: With `O=C1CCCN1c1ccc(-c2ccc(Nc3cccnc3)nc2)cc1` [Example 82, 1-(4-(6-(pyridin-3-ylamino)pyridin-3-yl)phenyl)pyrrolidin-2-one] as the compound, how does the IC50 read?
Answer: Its IC50 is 100 to 1000 nM.

Question: `CN(C)C(=O)c1ccc(-c2ccc(Nc3cccnc3)nc2)s1` [Example 5, N,N-dimethyl-5-(6-(pyridin-3-ylamino)pyridin-3-yl)thiophene-2-carboxamide] was tested. Which IC50 did it give?
Answer: Its IC50 is over 1000 nM.

Question: With `CCc1cc(Nc2cccnc2)ncc1-c1ccc(C(=O)N(C)C)cc1` [Example 17, 4-(4-ethyl-6-(pyridin-3-ylamino)pyridin-3-yl)-N,N-dimethylbenzamide] as the compound, how does the IC50 read?
Answer: The IC50 was 100 to 1000 nM.

Question: `CN(C)C(=O)c1ccc(-c2cnc(Nc3cncc(N4CCCC4=O)c3)cn2)c(F)c1` [Example 21, 3-fluoro-N,N-dimethyl-4-(5-((5-(2-oxopyrrolidin-1-yl)pyridin-3-yl)amino)pyrazin-2-yl)benzamide] was tested. Which IC50 did it give?
Answer: The IC50 was 100 to 1000 nM.

Question: How did the IC50 turn out when `CN(C)C(=O)c1cc(F)c(-c2cnc(Nc3cncc(N4CCCC4=O)c3)cn2)cc1F` [Example 22, 2,5-difluoro-N,N-dimethyl-4-(5-((5-(2-oxopyrrolidin-1-yl)pyridin-3-yl)amino)pyrazin-2-yl)benzamide] was run?
Answer: The IC50 was over 1000 nM.

Question: How did the IC50 turn out when `CN(C)C(=O)c1ccc(-c2ccc(Nc3cncc(N4CCN(CC5CC5)C4=O)c3)nc2)cc1` [Example 79, 4-(6-((5-(3-(cyclopropylmethyl)-2-oxoimidazolidin-1-yl)pyridin-3-yl)amino)pyridin-3-yl)-N,N-dimethylbenzamide] was run?
Answer: The IC50 was 10 to 100 nM.

Question: With `CN(C)C(=O)c1ccc(-c2ccc(Nc3cnc4ccn(S(C)(=O)=O)c4c3)nc2)cc1` [Example 42, N,N-dimethyl-4-(6-((1-(methylsulfonyl)-1H-pyrrolo[3,2-b]pyridin-6-yl)amino)pyridin-3-yl)benzamide] as the compound, how does the IC50 read?
Answer: The IC50 was 10 to 100 nM.

Question: How did the IC50 turn out when `CN(C)C(=O)c1ccc(-c2ccc(Nc3cncc(N(C)S(=O)(=O)C4CC4)c3)nc2)cc1` [Example 25, N,N-dimethyl-4-(6-((5-(N-methylcyclopropanesulfonamido)pyridin-3-yl)amino)pyridin-3-yl)benzamide] was run?
Answer: The IC50 was 10 to 100 nM.

Reference: patent publication US11667651B2, “Aminopyridine derivatives as phosphatidylinositol phosphate kinase inhibitors” (HiberCell, Inc., priority 2017, dated 2023)
